Laboratory results reported in patent US11001569B2, “6-membered heteroaromatic substituted cyanoindoline derivatives as NIK inhibitors” (Janssen Pharmaceutica NV, priority 2016, dated 2021).
Where two headings read alike, the source gives them in different places.

Columns and labels:
[1] = test system: P-IKKα levels in L363 (NIK translocated multiple myeloma) cells; assay: Effect of compounds on P-IKKα levels in L363 cells (Mesoscale sandwich immuno-assay); format: cell-based, human; details: 2 hr treatment, averaged values, read-out: Inhibition of pIKKα_L-363 (IC50 (nM))
Protocol: Effect of Compounds on P-IKKα Levels in L363 (NIK Translocated Multiple Myeloma) Cells
All compounds tested were dissolved in DMSO and further dilutions were made in culture medium. Final DMSO concentration was 1% (v/v) in cell assays. The human L363 cells (ATCC) were cultured in RPMI 1640 medium supplemented with GlutaMax and 10% fetal calf serum (PAA). Cells were routinely maintained at densities of 0.2×10^6 cells per ml-1×10^6 cells per ml at 37° C. in a humidified 5% CO2 atmosphere. Cells were passaged twice a week splitting back to obtain the low density. Cells were seeded in 96 well plates (Nunc 167008) at 2×10^6 per ml media in a volume of 75 μl per well plus 25 μl 1 μg/ml recombinant human B-cell activating factor (BAFF/BLyS/TNFSF13B). Seeded cells were incubated at 37° C. in a humidified 5% CO2 atmosphere for 24 hr. Drugs and/or solvents were added (20 μl) to a final volume of 120 μl. Following 2 hr treatment plates were removed from the incubator and cell lysis was achieved by the addition of 30 μl 5× lysis buffer followed by shaking on a plate shaker at 4° C. for 10 min. At the end of this incubation lysed cells were centrifuged at 800×g for 20 min at 4° C. and the lysate was assessed for P-IKK levels by sandwich immuno-assay carried out in anti-rabbit antibody coated Mesoscale plates. Within an experiment, the results for each treatment were the mean of 2 replicate wells. For initial screening purposes, compounds were tested using an 8 point dilution curve (serial 1:3 dilutions). […] The blank incubation value was subtracted from all control and sample values. To determine the IC50 a sigmoidal curve was fitted to the plot of % inhibition of control P-IKKα levels versus Log10 compound concentration.

[2] = test system: JJN-3 (NIK translocated) multiple myeloma cells; assay: Antiproliferative activity on JJN-3 multiple myeloma cells (CellTiter-Glo); format: cell-based, human; details: Homo sapiens, JJN-3, 96 h, JJN-3 (NIK translocated) cells, 96 hr treatment, averaged values, read-out: JJN-3 Proliferation inhibition (IC50 (nM))
Method in brief: (§1)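 Cells plated at 15000 (JJN3) or 20000 (KMS12BM) per well and treated 96 h at 37° C, 5% CO2, final DMSO 0.3%, 9-point 1:3 dilutions. Viability by CellTiter-Glo luminescence; time-zero blank subtracted, growth expressed as percent of untreated control.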

[3] = molecular target: recombinant human NF-kappaB-inducing Kinase (NIK/MAP3K14) (Homo sapiens, UniProt Q99558); assay: Inhibition of auto-phosphorylation of recombinant human NIK/MAP3K14 activity (AlphaScreen); format: biochemical; details: 25 microM ATP, averaged over all measurements on all batches
[4] = test system: KMS12-BM (NIK WT) multiple myeloma cells; assay: Antiproliferative activity on KMS12-BM multiple myeloma cells (CellTiter-Glo); format: cell-based, human; details: Homo sapiens, KMS-12-BM, 96 h, 96 hr treatment, averaged values, read-out: KMS-12 Proliferation inhibition (IC50 (nM))
Method in brief: as §1

Sequence of recombinant human NF-kappaB-inducing Kinase (NIK/MAP3K14) (Q99558 whole entry): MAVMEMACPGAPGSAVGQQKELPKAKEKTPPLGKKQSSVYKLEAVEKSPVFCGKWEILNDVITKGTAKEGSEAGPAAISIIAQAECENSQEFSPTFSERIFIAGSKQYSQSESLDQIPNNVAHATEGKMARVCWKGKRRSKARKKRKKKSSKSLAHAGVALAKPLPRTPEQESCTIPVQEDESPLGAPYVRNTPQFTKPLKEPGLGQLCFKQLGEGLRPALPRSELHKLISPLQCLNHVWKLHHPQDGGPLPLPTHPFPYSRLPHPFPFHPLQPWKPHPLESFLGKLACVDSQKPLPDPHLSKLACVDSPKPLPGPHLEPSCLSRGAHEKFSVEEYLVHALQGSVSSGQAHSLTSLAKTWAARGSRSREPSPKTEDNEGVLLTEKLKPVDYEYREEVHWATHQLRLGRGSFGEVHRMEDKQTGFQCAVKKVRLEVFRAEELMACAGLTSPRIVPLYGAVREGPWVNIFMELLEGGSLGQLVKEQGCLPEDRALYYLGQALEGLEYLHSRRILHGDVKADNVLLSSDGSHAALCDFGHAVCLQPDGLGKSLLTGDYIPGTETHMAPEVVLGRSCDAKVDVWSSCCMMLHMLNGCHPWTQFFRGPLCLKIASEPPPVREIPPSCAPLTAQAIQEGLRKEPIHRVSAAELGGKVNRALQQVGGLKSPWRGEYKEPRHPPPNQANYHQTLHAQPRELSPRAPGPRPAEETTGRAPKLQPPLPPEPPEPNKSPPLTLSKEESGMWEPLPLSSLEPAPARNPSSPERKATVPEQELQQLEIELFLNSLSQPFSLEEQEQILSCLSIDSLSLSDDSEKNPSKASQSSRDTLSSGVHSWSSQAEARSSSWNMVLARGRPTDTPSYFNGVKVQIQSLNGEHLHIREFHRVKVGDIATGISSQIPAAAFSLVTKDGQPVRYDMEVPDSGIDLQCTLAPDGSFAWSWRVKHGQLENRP

Row | IC50 ([1]; Homo sapiens, L-363, 2 h) [nM] | IC50 [2] [nM] | IC50 [3] [nM] | melting point [°C] | IC50 [4] [nM] | IC50 [1] [nM] | Structure (SMILES)
1 | 17.4 | 98 | 2.9 | 193 | > 10000 | – | CCCc1ncc(C#N)cc1Nc1nccc(-c2cc(C#N)c3c(c2)[C@@](C)(CO)CN3)n1 [Compound 63]
2 | 5.6 | 1440 | 2.1 | 165 | 9550 | – | CNC(=O)c1cnc(C)c(Nc2nccc(-c3cc(C#N)c4c(c3)[C@@](C)(CO)CN4)n2)c1 [Compound 93]
3 | 25.7 | 132 | 12 | 171 | > 10000 | – | Cc1cnc(CCN2CC(F)C2)c(Nc2nccc(-c3cc(C#N)c4c(c3)[C@@](C)(CO)CN4)n2)c1 [Compound 150]
4 | – | – | 14.1 | 140 | – | 85.1 | Cc1cnc(OCC2CN(C)CCO2)c(Nc2nccc(-c3cc(C#N)c4c(c3)[C@@](C)(CO)CN4)n2)c1 (single isomer, unassigned) [Compound 152]
5 | 4.9 | 49 | 0.9 | 208 | > 10000 | – | Cc1cc(Nc2nccc(-c3cc(C#N)c4c(c3)[C@@](C)(CO)CN4)n2)c(=O)n(CC(C)N2CCOCC2)c1 (mixture of isomers) [Compound 18i]
6 | 19.5 | 389 | 3 | 186 | > 10000 | – | COCCOc1ncc(F)cc1Nc1nccc(-c2cc(C#N)c3c(c2)[C@@](C)(CO)CN3)n1 [Compound 61]
7 | 0.9 | 18 | 1.1 | 198 | 813 | – | CN(C)CCn1cc(Cl)cc(Nc2nccc(-c3cc(C#N)c4c(c3)[C@@](C)(CO)CN4)n2)c1=O [Compound 12i]
8 | 2.6 | 347 | 1.1 | 149 | 3890 | – | Cc1cc(Nc2nccc(-c3cc(C#N)c4c(c3)[C@@](C)(CO)CN4)n2)c(=O)n(CCN2CC(F)C2)c1 [Compound 1i]
9 | ~141 | 41 | 3.3 | 178 | > 10000 | – | CCCCc1ncc(C#N)cc1Nc1nccc(-c2cc(C#N)c3c(c2)[C@@](C)(CO)CN3)n1 [Compound 66]
10 | 22.4 | 148 | 4.2 | 198 | > 10000 | – | CN(C)C(=O)/C=C/c1ccc(Nc2nccc(-c3cc(C#N)c4c(c3)[C@@](C)(CO)CN4)n2)c(CCC2CC2)n1 [Compound 88]
11 | 10 | 275 | 1 | 194 | 5130 | – | Cc1cc(Nc2nccc(-c3cc(C#N)c4c(c3)[C@@](C)(CO)CN4)n2)c(=O)n(Cc2nccn2C2CC2)c1 [Compound 6i]
12 | 21.4 | 74 | 13.2 | 230 | > 10000 | – | COCCNc1nc(OC)c(Nc2nccc(-c3cc(C#N)c4c(c3)C(C)(CO)CN4)n2)cc1Cl (stereo not drawn) [Compound 2]
13 | 25.7 | 60 | 5 | 162 | > 10000 | – | CC(C)(O)COc1ncc(C#N)cc1Nc1nccc(-c2cc(C#N)c3c(c2)[C@@](C)(CO)CN3)n1 [Compound 77]
14 | 2.8 | 31 | 3 | 152 | > 10000 | – | COCCN(C)c1nc(C)c(Nc2nccc(-c3cc(C#N)c4c(c3)[C@@](C)(CO)CN4)n2)cc1Cl [Compound 51]
15 | 9.9 | 263 | 2.7 | > 260 | 4900 | – | Cc1ncc(CO)cc1Nc1nccc(-c2cc(C#N)c3c(c2)[C@@](C)(CO)CN3)n1 [Compound 169]
16 | 21.4 | 205 | 5.5 | 115 | > 10000 | – | COCCCc1ncc(C)cc1Nc1nccc(-c2cc(C#N)c3c(c2)[C@@](C)(CO)CN3)n1 [Compound 177]
17 | 21.4 | – | 7.6 | 235 | – | – | CC1(C)CNc2c(C#N)cc(-c3ccnc(Nc4cc(F)cn(CCN5CC(F)C5)c4=O)n3)cc21 [Compound 28i]
18 | 4 | – | 6.5 | 199 | – | – | Cc1cc(Nc2nccc(-c3cc(C#N)c4c(c3)[C@@](C)(CO)CN4)n2)c(C)nc1OC1CCOCC1 [Compound 174]
19 | 229 | – | 25.7 | 150 | – | – | Cc1ncc(C(=O)N2CCN(C)CC2)cc1Nc1nccc(-c2cc(C#N)c3c(c2)[C@@](C)(CO)CN3)n1 [Compound 166]
20 | 275 | 708 | 123 | – | > 10000 | – | COc1nc(N(C)C)c(Cl)cc1Nc1nccc(-c2cc(C#N)c3c(c2)C(C)(C)CN3)n1 [Compound 99]
21 | 9.5 | 120 | 1.7 | – | > 10000 | – | CNC(=O)c1cc(Nc2nccc(-c3cc(C#N)c4c(c3)[C@@](C)(CO)CN4)n2)c(=O)n(CC2CC2)c1 [Compound 25i]
22 | 355 | 741 | 18.6 | – | 4790 | – | COCCOc1nc(C2CCOCC2)ncc1Nc1nccc(-c2cc(C#N)c3c(c2)[C@@](C)(CO)CN3)n1 [Compound 141]
23 | 617 | – | 339 | 143 to 145 | – | – | CC1(C)CNc2c(C#N)cc(-c3ccnc(Nc4cc(Cl)cnc4C(=O)N4CCC(O)C4)n3)cc21 (stereo not drawn) [Compound 180]
24 | 70.8 | 708 | 7.2 | – | > 10000 | – | COCCOc1nc(P(C)(C)=O)ccc1Nc1nccc(-c2cc(C#N)c3c(c2)[C@@](C)(CO)CN3)n1 [Compound 60]
25 | 3 | 372 | 2.5 | – | > 10000 | – | C[C@]1(CO)CNc2c(C#N)cc(-c3ccnc(Nc4cc(C#N)cnc4OC4CC4)n3)cc21 [Compound 85]
26 | 46.8 | 417 | 28.2 | – | > 10000 | – | COc1nc(CC(C)C)c(Nc2nccc(-c3cc(C#N)c4c(c3)[C@@](C)(CO)CN4)n2)cc1C [Compound 161]
27 | 14.5 | – | 4.6 | 276 | – | – | Cc1cc(Nc2ncnc(-c3cc(C#N)c4c(c3)[C@@](C)(CO)CN4)n2)c(=O)n(C)c1 [Compound 30i]
